From patent publication US9873693B2 (Sunesis Pharmaceuticals, Inc., priority 2006, dated 2018)
pEC50, pIC50: −log10 of the molar value. Where two headings read alike, the source gives them in different places.

How the values were obtained:
phospho-akt (Thr308) = phospho-akt (Thr308) MSD ELISA in PC-3 cells; type: cell-based; conditions: Homo sapiens; for pEC50 / EC50: PC-3, 2 h; for pEC50: read-out: Inhibition of P308 Akt in cells using MSD EC50; for EC50: read-out: Reduction of Cellular Levels of Akt p308 By MSD ELISA (EC50 μM)
Procedure: PC-3 cells were harvested by trypsin and counted. Cells were plated in coated 96-well flat bottom plates (plate 15,000 cells/well in 100 ul growth media (10% FBS, 1× pen-strep) an place in an incubator overnight.
Subject inhibitors were stocked at 50 mM, then diluted to 30 mM (4.8 μl cpd plus […] DMSO) in 100% DMSO. Three-fold dilutions were performed from 30 mM stock. (4 μl into 8 ul 100% DMSO). Aliquots of 1.0 μl of inhibitor solution were transferred into SF Medium (using deep well block).
Control wells were prepared as follows. For DMSO high controls, 1.0 μl of 100% DMSO was added into 1.0 ml SF.
MSD plates were blocked for 1 hour by adding 150 μl of Blocking Solution (3% BSA) to each well. The MSD plates were washed 4× with TBST, and 50 μl lysates were transferred to MSD plate and place on plate shaker shake at 4 degrees O/N, light shaking (speed 3.5). The plate was washed 4× with TBST.
25 μl of Ab detection solution was added to each well. The plate was sealed and incubated 1 hr RT, light shaking (speed 3.5). The plate was washed 4 times with TBST. 150 μl of Read Buffer was added (5 mls 4×MSD Read Buffer+15 mls water). Finally the plate was read immediately on the MSD plate reader.

phosphorylated PDK1 = phosphorylated PDK1 (Homo sapiens (Human), UniProt O15530); assay: PDK1 kinase assay (coupled PDK1/AKT/FAM-crosstide, IMAP); type: biochemical; conditions: 0.5 nM phosphorylated PDK1, 24 μM ATP; read-out: Inhibition of phospo-PDK1 in vitro IC50
phosphorylated PDK1, sequence (O15530 51-360): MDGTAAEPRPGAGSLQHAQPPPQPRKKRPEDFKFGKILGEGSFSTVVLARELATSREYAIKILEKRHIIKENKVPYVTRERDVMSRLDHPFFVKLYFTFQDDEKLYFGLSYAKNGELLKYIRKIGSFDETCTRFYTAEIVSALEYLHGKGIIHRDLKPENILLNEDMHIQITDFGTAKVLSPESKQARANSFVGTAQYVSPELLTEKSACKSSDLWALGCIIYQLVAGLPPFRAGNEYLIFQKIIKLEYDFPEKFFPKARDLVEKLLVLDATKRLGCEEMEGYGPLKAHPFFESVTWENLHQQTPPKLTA

SMILES	pEC50 (phospho-akt (Thr308); PC-3 cells, 2 hours, no serum)	pIC50 (phosphorylated PDK1)	other results
C[C@H](COc1ccc2[nH]c(=O)[nH]c2c1)NC(=O)c1cccn(Cc2cc(F)c(F)c(F)c2)c1=O [Cpd 173]	5.30 to 6.00		
O=C(NC(COc1ccc2[nH]c(=O)[nH]c2c1)c1cccnc1)c1cccn(Cc2cc(F)c(F)c(F)c2)c1=O (stereo not drawn) [Cpd 163]			pEC50 (phospho-akt (Thr308)): 5.30 to 6.00
O=C(Nc1n[nH]c2ccc(-c3c[nH]c4ncccc34)cc12)c1cccn(Cc2ccc(F)c(F)c2)c1=O [Cpd 42]			EC50 (phospho-akt (Thr308); PC-3 cells, 2 hours, no serum): 1 to 5 µM
O=C(NCc1cccc(-c2c[nH]c3ncccc23)c1)c1cccn(Cc2ccc(C(F)(F)F)cc2)c1=O [Cpd 145]	< 5.30		EC50 (phospho-akt (Thr308); PC-3 cells, 2 hours, no serum): 1 to 5 µM
O=C(N[C@@H](COc1ccc2[nH]c(=O)[nH]c2c1)C(=O)O)c1cccn(Cc2cc(F)c(F)c(F)c2)c1=O [Cpd 154]		> 6.30	
O=C(NCc1noc(-c2c[nH]c3ncccc23)n1)c1cccn(Cc2ccc(F)c(F)c2)c1=O [Cpd 129]			inhibition at 1 µM (phospho-akt (Thr308); PC-3 cells, at 1 μM, read-out: Percent Inhibition of phospho-Akt (308) By MSD ELISA): < 25%; inhibition at 10 µM (phospho-akt (Thr308); PC-3 cells, at 10 μM, read-out: Percent Inhibition of phospho-Akt (308) By MSD ELISA): < 25%
O=C(NCc1cc(OC2CCCCC2)cc(-c2c[nH]c3ncccc23)c1)c1cccn(Cc2ccc(F)c(F)c2)c1=O [Cpd 84]	< 5.30		
O=C(O)COc1cc(CNC(=O)c2cccn(Cc3ccc(F)c(F)c3)c2=O)cc(-c2c[nH]c3ncccc23)c1 [Cpd 61]		> 6.30	
O=C(NCc1cccc(-c2c[nH]c(C(=O)N3CCOCC3)c2)c1)c1cccn(Cc2ccc(F)c(F)c2)c1=O [Cpd 76]	5.30 to 6.00		
O=C(NCc1noc(-c2c[nH]c3ncccc23)n1)c1cccn(Cc2cc(F)c(F)c(F)c2)c1=O [Cpd 138]	5.30 to 6.00		EC50 (phospho-akt (Thr308); PC-3 cells, 2 hours, no serum): 1 to 5 µM
O=C(N[C@@H](COc1ccc2[nH]c(=O)[nH]c2c1)c1ccccc1Cl)c1cccn(Cc2cc(F)c(F)c(F)c2)c1=O [Cpd 151]	> 6.00		
O=C(Nc1ccnc2ccc(-c3c[nH]c4ncccc34)cc12)c1cccn(Cc2ccc(F)c(F)c2)c1=O [Cpd 66]	> 6.00		
CC(C)(C)OC(=O)N1CCC(Oc2cc(CNC(=O)c3cccn(Cc4ccc(F)c(F)c4)c3=O)cc(-c3c[nH]c4ncccc34)c2)CC1 [Cpd 88]	< 5.30		
O=C(NCc1cc(-c2c[nH]c3ncccc23)ncn1)c1cccn(Cc2ccc(F)c(F)c2)c1=O [Cpd 149]		> 6.30	
O=C(NCc1ccc(O)c(-c2c[nH]c3ncccc23)c1)c1cccn(Cc2ccc(F)c(F)c2)c1=O [Cpd 82]	5.30 to 6.00		
NS(=O)(=O)c1ccc(-c2cccc(CNC(=O)c3cccn(Cc4ccc(F)c(F)c4)c3=O)c2)cc1 [Cpd 228]		< 5.00	
COc1ccnc(NCCCCCNC(=O)c2cccn(Cc3ccc(Cl)c(Cl)c3)c2=O)n1 [Cpd 251]		5.00 to 6.30	
O=C(c1cccn(Cc2ccc(F)c(F)c2)c1=O)N1CCN(C(=O)c2c[nH]c3ncccc23)CC1 [Cpd 233]		< 5.00	
C=C[C@H](COc1ccc2[nH]c(=O)[nH]c2c1)NC(=O)c1cccn(Cc2cc(F)c(F)c(F)c2)c1=O [Cpd 159]	5.30 to 6.00		
NC(=O)COc1cc(CNC(=O)c2cccn(Cc3ccc(F)c(F)c3)c2=O)cc(-c2c[nH]c3ncccc23)c1 [Cpd 62]	> 6.00		
Cn1nc(NC(=O)c2cccn(Cc3ccc(F)c(F)c3)c2=O)c2cc(-c3c[nH]c4ncccc34)ccc21 [Cpd 87]	> 6.00		

SMILES	pEC50 (phospho-akt (Thr308); PC-3 cells, 2 hours, no serum)	pIC50 (phosphorylated PDK1)	other results
O=C(NCc1cccc(-c2c[nH]c3ncc(-c4nnn[nH]4)cc23)c1)c1cccn(Cc2ccc(F)c(F)c2)c1=O [Cpd 246]		> 6.30	
O=C(Nc1cccc(C(=O)n2ccc3ncccc32)c1)c1cccn(Cc2ccc(F)c(F)c2)c1=O [Cpd 229]		< 5.00	
Nc1ncnc2ccc(-c3ccc(CNC(=O)c4cccn(Cc5ccc(F)c(F)c5)c4=O)s3)cc12 [Cpd 70]	> 6.00		
NS(=O)(=O)c1ccccc1-c1cccc(CNC(=O)c2cccn(Cc3ccc(F)c(F)c3)c2=O)c1 [Cpd 226]		< 5.00	
O=C(Nc1cccc(C(=O)c2c[nH]c3ccccc23)c1)c1cccn(Cc2ccc(F)c(F)c2)c1=O [Cpd 221]		< 5.00	
CN1CCC(=C2C(=O)Nc3cc(/C=C/CNC(=O)c4cccn(Cc5cc(F)c(F)c(F)c5)c4=O)ccc32)CC1 [Cpd 211]		> 6.30	
O=C(N[C@H]1CC[C@H](c2c[nH]c3ncccc32)CC1)c1cccn(Cc2ccc(F)c(F)c2)c1=O [Cpd 337]		< 5.00	
CN(C)C(=O)COc1cc(CNC(=O)c2cccn(Cc3ccc(F)c(F)c3)c2=O)cc(-c2c[nH]c3ncccc23)c1 [Cpd 63]	> 6.00		
O=C(NCC12CC3CC(C1)CC(c1c[nH]c4ncccc14)(C3)C2)c1cccn(Cc2ccc(F)c(F)c2)c1=O [Cpd 327]		5.00 to 6.30	
Cn1ccnc1/C=C1/C(=O)Nc2cc(/C=C/CNC(=O)c3cccn(Cc4cc(F)c(F)c(F)c4)c3=O)ccc21 [Cpd 210]		> 6.30	
O=C(NCc1cccc(-c2c[nH]c3ncc(-c4nnn[nH]4)cc23)c1)c1cccn(Cc2ccc(F)c(F)c2)c1=O [Cpd 43]			EC50 (phospho-akt (Thr308); PC-3 cells, 2 hours, no serum): > 5 µM
CS(=O)(=O)N1CCC(Oc2cc(CNC(=O)c3cccn(Cc4ccc(F)c(F)c4)c3=O)cc(-c3c[nH]c4ncccc34)c2)CC1 [Cpd 94]	> 6.00		
CC(c1ccc(C(F)(F)F)cc1)n1cccc(C(=O)NCc2noc(-c3c[nH]c4ncccc34)n2)c1=O (stereo not drawn) [Cpd 140]	5.30 to 6.00		EC50 (phospho-akt (Thr308); PC-3 cells, 2 hours, no serum): 1 to 5 µM
O=C1Cc2ccc(OCCNC(=O)c3cccn(Cc4cc(F)c(F)c(F)c4)c3=O)cc2N1 [Cpd 207]		> 6.30	
O=C(NCCOc1ccc2[nH]c(=O)[nH]c2c1F)c1cccn(Cc2ccc(F)c(F)c2)c1=O [Cpd 169]	5.30 to 6.00		
CC(C)Oc1cc(CNC(=O)c2cccn(Cc3cc(F)c(F)c(F)c3)c2=O)cc(-c2c[nH]c3ncccc23)c1 [Cpd 65]	> 6.00		
O=C(NCC1CCC(c2c[nH]c3ncccc23)CC1)c1cccn(Cc2ccc(F)c(F)c2)c1=O (stereo not drawn) [Cpd 223]		< 5.00	
O=C(O)c1cnc2[nH]cc(-c3cccc(CNC(=O)c4cccn(-c5cccc(F)c5F)c4=O)c3)c2c1 [Cpd 238]		> 6.30	
O=C(NCc1cccc(-c2c[nH]c3ncc(C(=O)N4CCOCC4)cc23)c1)c1cccn(Cc2ccc(F)c(F)c2)c1=O [Cpd 69]	> 6.00		
O=C(NCCCCCCc1c[nH]c2ncccc12)c1cccn(Cc2ccc(F)c(F)c2)c1=O [Cpd 338]		> 6.30	
COc1ccnc(NCCC#CCCNC(=O)c2cccn(Cc3cccc(Cl)c3)c2=O)n1 [Cpd 250]		5.00 to 6.30	

SMILES	pEC50 (phospho-akt (Thr308); PC-3 cells, 2 hours, no serum)	pIC50 (phosphorylated PDK1)	other results
NS(=O)(=O)c1cccc(-c2cccc(CNC(=O)c3cccn(Cc4ccc(F)c(F)c4)c3=O)c2)c1 [Cpd 227]		< 5.00	
CN1CCC(Oc2cc(CNC(=O)c3cccn(Cc4ccc(F)c(F)c4)c3=O)cc(-c3c[nH]c4ncccc34)c2)CC1 [Cpd 86]			pEC50 (phospho-akt (Thr308)): 5.30 to 6.00
O=C(NCc1coc(-c2c[nH]c3ncccc23)n1)c1cccn(Cc2ccc(F)c(F)c2)c1=O [Cpd 131]	5.30 to 6.00		EC50 (phospho-akt (Thr308); PC-3 cells, 2 hours, no serum): 1 to 5 µM
Nc1ncnc2ccc(-c3cccc(CNC(=O)c4cccn(Cc5ccc(F)c(F)c5)c4=O)c3)cc12 [Cpd 64]	< 5.30		
Nc1ncc(-c2cccc(CNC(=O)c3cccn(Cc4ccc(F)c(F)c4)c3=O)c2)cn1 [Cpd 215]		< 5.00	
O=C(NCc1cccc(-c2c[nH]c3ncc(CO)cc23)c1)c1cccn(Cc2ccc(F)c(F)c2)c1=O [Cpd 8]		> 6.30	
O=C(Nc1cccc(C(=O)c2c[nH]c3ncccc23)c1)c1cccn(Cc2ccc(F)c(F)c2)c1=O [Cpd 127]		> 6.30	
O=C(NCc1cc(OCC(O)CO)cc(-c2c[nH]c3ncccc23)c1)c1cccn(Cc2ccc(F)c(F)c2)c1=O (stereo not drawn) [Cpd 68]	5.30 to 6.00		
O=C(O)c1cc(-c2c[nH]c3ncccc23)cc(CNC(=O)c2cccn(Cc3ccc(F)c(F)c3)c2=O)n1 [Cpd 172]	< 5.30		
CCn1nc(NC(=O)c2cccn(Cc3ccc(F)c(F)c3)c2=O)c2cc(-c3c[nH]c4ncccc34)ccc21 [Cpd 95]	5.30 to 6.00		
O=C(NCc1cccc(-c2c[nH]c3nccc(F)c23)c1)c1cccn(Cc2ccc(F)c(F)c2)c1=O [Cpd 74]	5.30 to 6.00		
O=C(NCc1cc(OC2CCCC2)cc(-c2c[nH]c3ncccc23)c1)c1cccn(Cc2ccc(F)c(F)c2)c1=O [Cpd 85]	5.30 to 6.00		
O=C(NCc1cc(OC2CCNCC2)cc(-c2c[nH]c3ncccc23)c1)c1cccn(Cc2ccc(F)c(F)c2)c1=O [Cpd 67]	> 6.00		
O=C(N[C@@H](COc1cc2[nH]c(=O)[nH]c2cn1)c1ccccc1)c1cccn(Cc2cc(F)c(F)c(F)c2)c1=O [Cpd 176]		> 6.30	
O=C(NCCCCc1c[nH]c2ncccc12)c1cccn(Cc2ccc(Cl)c(Cl)c2)c1=O [Cpd 269]		> 6.30	
O=C(NCc1ccc(OCCN2CCOCC2)c(-c2c[nH]c3ncccc23)c1)c1cccn(Cc2ccc(F)c(F)c2)c1=O	5.30 to 6.00		
O=C(NC/C=C/c1ccc2[nH]c(=O)[nH]c2c1)c1cccn(Cc2cc(F)c(F)c(F)c2)c1=O [Cpd 170]	5.30 to 6.00		
O=C(N[C@@H](COc1ccc2[nH]c(=O)[nH]c2c1)C1CC1)c1cccn(Cc2cc(F)c(F)c(F)c2)c1=O [Cpd 168]	5.30 to 6.00		
O=C(NCCCCc1c[nH]c2ncccc12)c1cc(Cl)cn(Cc2ccc(Cl)cc2)c1=O [Cpd 268]		> 6.30	
